Assay results from US10111874B2, “Combination therapies for treatment of cancer” (Araxes Pharma LLC, priority 2014, dated 2018).

The compounds below were run against T1, KRAS G12C 1-169, his-tagged protein, GDP-loaded (Homo sapiens, UniProt P01116, G12C) (assay: Biochemical assay: covalent binding to KRAS G12C analyzed by mass spectrometry). Conditions: compounds 1-47, measured at 24 h.
T1 construct: KRAS G12C 1-169, his-tagged protein, GDP-loaded
Procedure: Compounds were tested for activity as follows:
Compounds were diluted to 50× final test concentration in DMSO in 96-well storage plates. […] Reactions were mixed carefully and thoroughly by pipetting up/down with a 200 μl multi-channel pipettor. […] 5 μl of 2% formic acid (Fisher cat#A117) in DI H2O was then added to each well followed by mixing with a pipette. The plate was then resealed with aluminum seal and stored on dry ice until analyzed as described below.
The above described assays were analyzed by mass spectrometry according to the following procedure:
The MS instrument is set to positive polarity, 2 GHz resolution, and low mass (1700) mode and allowed to equilibrate for 30 minutes. The instrument is then calibrated, switched to acquisition mode and the appropriate method loaded.
After another 30 minute equilibration time, a blank batch (i.e., buffer) is run to ensure equipment is operating properly. The samples are thawed at 37° C. for 10 minutes, briefly centrifuged, and transfer to the bench top. Wells A1 and H12 are spiked with 1 μL 500 μM internal standard peptide, and the plates centrifuged at 2000×g for 5 minutes. The method is then run and masses of each individual well recorded.
The masses (for which integration data is desired) for each well are pasted into the platemap and exported from the analysis. Masses for the internal standards are exported as well. The data at 50 ppm is extracted for the +19 charge state, and identity of well A1 is assigned using the internal standard spike and integrated. Peak data is exported as a TOF list and the above steps are repeated individually, for the +20, 21, 22, 23, 24, and 25 charge states.

For C=CC(=O)N1CCC2(C1)CN(C(=O)CNc1cc(Cl)c(Cl)cc1O)C2 [Example 40, 1-(2-(2-(4,5-dichloro-2-hydroxyphenylamino)acetyl)-2,6-diazaspiro[3.4]octan-6-yl)prop-2-en-1-one], which Binding % is on record?
The Binding % was “+++ (+++indicates binding activity greater than 50% and up to 75%)”.

With C=CC(=O)N1CCC(Nc2ncnc3cc(Cl)c(-c4ccccc4Cl)cc23)CC1 [Compound I-2, 1-(4-(7-chloro-6-(2-chlorophenyl)quinazolin-4-ylamino)piperidin-1-yl)prop-2-en-1-one] as the compound, how does the Binding % read?
Its Binding % is “+ (+indicates binding activity from 5% to 25%)”.

Which Binding % does the source give for C=CC(=O)N1CCN(c2ncnc3cc(Cl)c(-c4ccc(Cl)cc4)cc23)CC1CO (stereo not drawn) [Compound I-46, 1-(4-(7-chloro-6-(4-chlorophenyl)quinazolin-4-yl)-2-(hydroxymethyl)piperazin-1-yl)prop-2-en-1-one] here?
The Binding % was “++++ (++++indicates binding activity greater than 75%)”.

With C=CC(=O)NC1CN(C2CN(C(=O)CNc3cc(Cl)c(Cl)cc3O)C2)C1 [Example 39, N-(1′-(2-(4,5-dichloro-2-hydroxyphenylamino)acetyl)-1,3′-biazetidin-3-yl)acrylamide] as the compound, how does the Binding % read?
Its Binding % is “+ (+indicates binding activity from 5% to 25%)”.

Which Binding % does the source give for CN(C)C/C=C/C(=O)N1CCN(c2ncnc3cc(Cl)c(-c4ccccc4Cl)cc23)CC1 [Compound I-25, (E)-1-(4-(7-chloro-6-(2-chlorophenyl)quinazolin-4-yl)piperazin-1-yl)-4-(dimethylamino)but-2-en-1-one] here?
The Binding % was “++ (++indicates binding activity greater than 25% and up to 50%)”.

Same assay, conditions: compounds 48-246, measured at 2 h

How did the Binding % turn out when C=CC(=O)N1CCN(c2ncnc3cc(-c4ccc5oc(N)nc5c4)c(Cl)cc23)CC1 [Compound I-164, 1-(4-(7-(2-aminobenzo[d]oxazol-5-yl)-6-chloroquinazolin-4-yl)piperazin-1-yl)prop-2-en-1-one] was run?
The Binding % was “+ (+indicates binding activity from 5% to 25%)”.

How did the Binding % turn out when C=CC(=O)N1CCN(c2ncnc3cc(-c4ccc(F)cc4)c(Cl)cc23)CC1 [Compound I-83, 1-(4-(6-chloro-7-(4-fluorophenyl)quinazolin-4-yl)piperazin-1-yl)prop-2-en-1-one] was run?
The Binding % was “++ (++indicates binding activity greater than 25% and up to 50%)”.

Which Binding % does the source give for C=CC(=O)N1CCN(c2ncnc3cc(-c4cccc5onc(N)c45)c(Cl)cc23)CC1 [Compound I-149, 1-(4-(7-(3-aminobenzo[d]isoxazol-4-yl)-6-chloroquinazolin-4-yl)piperazin-1-yl)prop-2-en-1-one] here?
The Binding % was “+ (+indicates binding activity from 5% to 25%)”.

For C=CC(=O)N1CCN(c2nc(C)nc3cc(-c4ccccc4)c(Cl)cc23)CC1 [Compound I-95, 1-(4-(6-chloro-2-methyl-7-phenylquinazolin-4-yl)piperazin-1-yl)prop-2-en-1-one], which Binding % is on record?
Its Binding % is “++ (++indicates binding activity greater than 25% and up to 50%)”.

How did the Binding % turn out when CN(C)C/C=C/C(=O)N1CCN(c2ncnc3c(F)c(-c4ccccc4F)c(-c4ccccc4F)cc23)CC1 [Compound I-230, (E)-4-(dimethylamino)-1-(4-(8-fluoro-6,7-bis(2-fluorophenyl)quinazolin-4-yl)piperazin-1-yl)but-2-en-1-one] was run?
The Binding % was “+ (+indicates binding activity from 5% to 25%)”.

C=CC(=O)N1CCN(c2ncnc3cc(-c4cccc5c4OC(F)(F)O5)c(Cl)cc23)CC1 [Compound I-200, 1-(4-(6-chloro-7-(2,2-difluorobenzo[d][1,3]dioxol-4-yl)quinazolin-4-yl)piperazin-1-yl)prop-2-en-1-one] was tested. Which Binding % did it give?
Its Binding % is “++ (++indicates binding activity greater than 25% and up to 50%)”.

How did the Binding % turn out when C=CC(=O)N1CCN(c2ncnc3cc(C4CC4)c(Cl)cc23)CC1 [Compound I-68, 1-(4-(6-chloro-7-cyclopropylquinazolin-4-yl)piperazin-1-yl)prop-2-en-1-one] was run?
Its Binding % is “+ (+indicates binding activity from 5% to 25%)”.

For C=CC(=O)N1CCN(c2ncnc3ccccc23)CC1C#N (stereo not drawn) [Compound I-57, 1-acryloyl-4-(quinazolin-4-yl)piperazine-2-carbontrile], which Binding % is on record?
The Binding % was “+ (+indicates binding activity from 5% to 25%)”.

Which Binding % does the source give for C=CC(=O)N1CCN(c2ncnc3cc(-c4ccccc4C(F)(F)F)sc23)CC1 [Compound I-166, 1-(4-(6-(2-(trifluoromethyl)phenyl)thieno[3,2-d]pyrimidin-4-yl)piperazin-1-yl)prop-2-en-1-one] here?
Its Binding % is “+ (+indicates binding activity from 5% to 25%)”.

How did the Binding % turn out when C=CC(=O)N1CCN(c2ncnc3cc(-c4ccccc4CC)c(Cl)cc23)CC1 [Compound I-77, 1-(4-(6-chloro-7-(2-ethylphenyl)quinazolin-4-yl)piperazin-1-yl)prop-2-en-1-one] was run?
The Binding % was “+++ (+++indicates binding activity greater than 50% and up to 75%)”.

Which Binding % does the source give for C=CC(=O)N1CCN(c2nccc3cc(-c4ccccc4)c(Cl)cc23)CC1 [Compound I-88, 1-(4-(7-chloro-6-phenylisoquinolin-1-yl)piperazin-1-yl)prop-2-en-1-one] here?
Its Binding % is “+ (+indicates binding activity from 5% to 25%)”.

Which Binding % does the source give for C=CC(=O)N1CCN(c2ncnc3cc(-c4c(F)cccc4OC)c(Cl)cc23)CC1 [Compound I-194, 1-(4-(6-chloro-7-(2-fluoro-6-methoxyphenyl)quinazolin-4-yl)piperazin-1-yl)prop-2-en-1-one] here?
The Binding % was “++++ (++++indicates binding activity greater than 75%)”.

Same assay, conditions: compounds 247-342, measured at 30 min

With C=CC(=O)N1CCN(c2nc(OCCN3CCOCC3)nc3c(F)c(-c4c(C)ccc5[nH]ncc45)c(Cl)cc23)CC1 [Compound 342, 1-(4-(6-chloro-8-fluoro-7-(5-methyl-1H-indazol-4-yl)-2-(2-morpholinoethoxy)quinazolin-4-yl)piperazin-1-yl)prop-2-en-1-one] as the compound, how does the Binding % read?
Its Binding % is “++++ (++++indicates binding activity greater than 75%)”.

How did the Binding % turn out when C=CC(=O)N1CCN(c2nc(NCCN(C)C)nc3c(F)c(-c4c(C)ccc5[nH]ncc45)c(Cl)cc23)CC1 [Compound I-253] was run?
The Binding % was “++++ (++++indicates binding activity greater than 75%)”.

With C=CC(=O)N1CCN(c2nc(N)nc3cc(-c4c(C)ccc5[nH]ncc45)c(Cl)cc23)CC1 [Compound 319, 1-(4-(2-amino-6-chloro-7-(5-methyl-1H-indazol-4-yl)quinazolin-4-yl)piperazin-1-yl)prop-2-en-1-one] as the compound, how does the Binding % read?
The Binding % was “++ (++indicates binding activity greater than 25% and up to 50%)”.

Which Binding % does the source give for CC(C)(/C=C(\C#N)C(=O)N1CCN(c2ncnc3cc(-c4ccccc4F)c(Cl)cc23)CC1)CO [Compound I-261, (E)-2-(4-(6-chloro-7-(2-fluorophenyl)quinazolin-4-yl)piperazine-1-carbonyl)-5-hydroxy-4,4-dimethylpent-2-enenitrile] here?
Its Binding % is “+ (+indicates binding activity from 5% to 25%)”.

C=CC(=O)N1CCN(c2c(C#N)cnc3cc(-c4c(C)ccc5[nH]ncc45)c(Cl)cc23)CC1 [Compound I-270, 4-(4-acryloylpiperazin-1-yl)-6-chloro-7-(5-methyl-1H-indazol-4-yl)quinoline-3-carbonitrile] was tested. Which Binding % did it give?
Its Binding % is “+++ (+++indicates binding activity greater than 50% and up to 75%)”.

Same assay, conditions: determined at 2 hrs

C=CC(=O)N1CC(N2CCN(C(=O)CNc3cc(C4CC4)c(Cl)cc3C#N)CC2)C1 [II-71, 2-((2-(4-(1-Acryloylazetidin-3-yl)piperazin-1-yl)-2-oxoethyl)amino)-5-chloro-4-cyclopropylbenzonitrile] was tested. Which Binding % did it give?
Its Binding % is “+ (+indicates binding activity from 5% to 20%)”.

With C=CC(=O)N1CC(N2CCN(C(=O)CNc3cc(C4(C)CC4)c(Cl)cc3O)CC2)C1 [II-64, 1-(3-(4-(2-((4-Chloro-2-hydroxy-5-(1-methylcyclopropyl)phenyl)amino)acetyl)piperazin-1-yl)azetidin-1-yl)prop-2-en-1-one] as the compound, how does the Binding % read?
The Binding % was “++ (++indicates binding activity greater than 20%)”.

Same assay, conditions: determined at 24 hrs

C=CC(=O)N1CC(N2CCN(C(=O)CN3CC(=O)Nc4ccccc43)CC2)C1 [II-42, 4-(2-(4-(1-acryloylazetidin-3-yl)piperazin-1-yl)-2-oxoethyl)-3,4-dihydroquinoxalin-2(1H)-one] was tested. Which Binding % did it give?
Its Binding % is “+ (+indicates binding activity from 5% to 15%)”.

Which Binding % does the source give for C=CC(=O)N1CC(N2CCN(C(=O)CNc3cc(Cl)ccc3O)CC2)C1 [II-19, 1-(3-(4-(2-(5-chloro-2-hydroxyphenyl-amino)acetyl)-piperazin-1-yl)azetidin-1-yl)prop-2-en-1-one] here?
The Binding % was “+++ (+++indicates binding activity greater than 25% and up to 50%)”.

For C=CC(=O)N1CC(N2CCN(C(=O)CNc3cc(Cl)c(Cl)cc3C(F)(F)F)CC2)C1 [II-26, 1-(3-(4-(2-(4,5-dichloro-2-(trifluoromethyl)-phenylamino)acetyl)-piperazin-1-yl)azetidin-1-yl)prop-2-en-1-one], which Binding % is on record?
The Binding % was “+ (+indicates binding activity from 5% to 15%)”.

For C=CC(=O)N1CCC(N2CCN(C(=O)CNc3cc(I)c(Cl)cc3O)CC2)C1 (stereo not drawn) [II-11], which Binding % is on record?
The Binding % was “++++ (++++indicates binding activity greater than 50%)”.

C=CC(=O)N1CC(N2CCN(C(=O)CNc3cc(Cl)c(Br)cc3O)CC2)C1 [II-28, 1-(3-(4-(2-(4-bromo-5-chloro-2-hydroxyphenylamino)-cetyl)piperazin-1-yl)azetidin-1-yl)prop-2-en-1-one] was tested. Which Binding % did it give?
Its Binding % is “+++ (+++indicates binding activity greater than 25% and up to 50%)”.

Which Binding % does the source give for “1-(4-(2′,6-dichloro-4-methoxybiphenylcarbonyl)piperazin-1-yl)prop-2-en-1-one [III-1]” here?
Its Binding % is “+ (+indicates binding activity from 5% to 10%)”.
